Experimental data as given in PubChem BioAssay AID1963835 (Molecular Pharmacology Branch, DTP, NCI, 2024).
Several values for one entry are separate records, joined by “and”; a condition that tells them apart may be missing. Identical values can stand only once.

System: 699152-130-R-J1-PDC complex spheroid viability
Test: Anticancer human tumor 699152-130-R-J1-PDC patient-derived pancreatic carcinoma cell line growth inhibition [POLQ]
Conditions: for viability, T/C: stronger effect = lower value
Method: Multicellular complex tumor spheroid response to Polymerase (POL) inhibitors (novobiocin, ART-558, RP6685) in combination with a variety of drugs and investigational agents in selected tumor cell lines
The POL inhibitors (novobiocin, ART-558, and RP6685) were evaluated both individually and in combination with standard of care and investigational anticancer small molecules within a complex spheroid model of solid tumors. . Complex spheroids include a stromal component modeled by human endothelial cells (HUVEC) and fibroblasts modeled by human mesenchymal stem cells (MSCs). The concentration ranges selected for each drug and investigational agent were based upon clinically achievable concentrations if the clinical Cmax of the agent was known.
Compounds. The drugs and investigational agents: novobiocin (NSC847541), ART-558 (NSC835418), RP-6685 (NSC848927), peposertib (NSC802822), ceralasertib (NSC780249), elimusertib (NSC800525), camonsertib (NSC841442), AZD-1390 (NSC803789), olaparib (NSC753686), talazoparib (NSC767125), rucaparib (NSC756644), sotorasib (NSC818433), MRTX-1133 (NSC836407), SN-38 (NSC673596), topotecan (NSC609699), epotoside (NSC141540), doxorubicin (NSC123127), gemcitabine (NSC613327), 5-fluorouracil (NSC19893), paclitaxel (NSC125973), vemurafenib (NSC761431), MSA-2 (NSC828583), SN-011 (NSC837082), adavosertib (NSC754352), prexasertib (NSC758257), carboplatin (NSC241240) and oxaliplatin (NSC266046), were obtained from the National Cancer Institute (NCI) Developmental Therapeutics Program Chemical Repository (21). The FDA-approved anticancer drug set is available from the Developmental Therapeutics Program at https://dtp.cancer.gov/organization/dscb/obtaining/. […] The stock solutions were prepared in dimethyl sulfoxide (DMSO, Sigma-Aldrich, St. Louis, MO, cat. D2650), except for the platinum compounds which were prepared in saline (Quality Biological, Gaithersburg, MD, cat. 114-055-101), at 800-fold the tested concentration and stored at -70 degrees C prior to their use. All drugs and investigational agents were tested over a range starting from a high concentration at or near the clinical Cmax and decreasing in half-log increments. If the clinical Cmax for an agent had not been determined, the highest concentration tested was 10 microM, except for SN-38, which was tested at a high concentration of 1 microM.
Cell Culture. All cells were maintained in an incubator at 37 degrees C and 5% CO2 with 95% humidity. The PDC lines were cultured according to standard operating procedures established by the NCI PDMR (https://pdmr.cancer.gov). Table 3 of the manuscript, lists the cell lines along with the number of the three cell types plated to form the mct-spheroids and media for tumor cell growth. After thawing, all PDC lines, except 997537-175-T-J1-PDC and 415267-285-R-J2-PDC, were cultured in Matrigel-coated flasks prepared with a working solution of 1X Ham's F-12 nutrient mix, without supplementation (Thermo Fisher Scientific, cat. 11765054), 100 U/mL penicillin-streptomycin (Thermo Fisher Scientific, cat. 15140122), and 2.5% Matrigel (Corning Inc., Corning, NY, cat. 354248) for the first three passages. The two PDC lines 997537-175-T-J1-PDC and 415267-285-R-J2-PDC were cultured on uncoated flasks. The 857933-349-R-J2-PDC line was cultured in 6C/Colon 1B media containing advanced DMEM/F-12 (Thermo Fisher Scientific, cat. 12634028), 10 mM HEPES (Thermo Fisher Scientific, cat. 15630080), 1X GlutaMAX supplement (Thermo Fisher Scientific, cat. 35050061), 0.1 mg/mL primocin (InvivoGen, San Diego, CA, cat. ant-pm-2), 10% defined fetal bovine serum, heat inactivated (HyClone Laboratories Inc., Logan, UT, cat. SH30070.03HI), 50% L-WRN conditioned media (ATCC, cat. CRL-3276), 1.25 mM N-Acetyl-L-cysteine (Sigma-Aldrich, cat. A9165), 10 mM nicotinamide (Sigma-Aldrich, cat. N0636), 1X B-27 supplement (Thermo Fisher Scientific, cat. 17504044), 1X N-2 supplement (Thermo Fisher Scientific, cat. […]

[1] = curve of first compound, second compound 0.0316 µM
[2] = curve of first compound, second compound 0.1 µM
[3] = curve of first compound, second compound 0.316 µM
[4] = curve of first compound, second compound 1 µM
[5] = curve of first compound, second compound 3.16 µM
[6] = curve of first compound, second compound 10 µM
[7] = second compound 0.0316 µM, first compound 0.0316 µM
[8] = second compound 0.0316 µM, first compound 0.1 µM
[9] = second compound 0.0316 µM, first compound 0.316 µM
[10] = second compound 0.0316 µM, first compound 1 µM
[11] = second compound 0.0316 µM, first compound 3.16 µM
[12] = second compound 0.0316 µM, first compound 10 µM
[13] = second compound 0.1 µM, first compound 0.0316 µM
[14] = second compound 0.1 µM, first compound 0.1 µM
[15] = second compound 0.1 µM, first compound 0.316 µM
[16] = second compound 0.1 µM, first compound 1 µM
[17] = second compound 0.1 µM, first compound 3.16 µM
[18] = second compound 0.1 µM, first compound 10 µM
[19] = second compound 0.316 µM, first compound 0.0316 µM
[20] = second compound 0.316 µM, first compound 0.1 µM
[21] = second compound 0.316 µM, first compound 0.316 µM
[22] = second compound 0.316 µM, first compound 1 µM
[23] = second compound 0.316 µM, first compound 3.16 µM
[24] = second compound 0.316 µM, first compound 10 µM
[25] = second compound 1 µM, first compound 0.0316 µM
[26] = second compound 1 µM, first compound 0.1 µM
[27] = second compound 1 µM, first compound 0.316 µM
[28] = second compound 1 µM, first compound 1 µM
[29] = second compound 1 µM, first compound 3.16 µM
[30] = second compound 1 µM, first compound 10 µM
[31] = second compound 3.16 µM, first compound 0.0316 µM
[32] = second compound 3.16 µM, first compound 0.1 µM
[33] = second compound 3.16 µM, first compound 0.316 µM
[34] = second compound 3.16 µM, first compound 1 µM
[35] = second compound 3.16 µM, first compound 3.16 µM
[36] = second compound 3.16 µM, first compound 10 µM
[37] = second compound 10 µM, first compound 0.0316 µM
[38] = second compound 10 µM, first compound 0.1 µM
[39] = second compound 10 µM, first compound 0.316 µM
[40] = second compound 10 µM, first compound 1 µM
[41] = second compound 10 µM, first compound 3.16 µM
[42] = second compound 10 µM, first compound 10 µM
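Further: spheroids exposed to agents for 7 days before viability reading.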
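Wherever viability, T/C is given: percent of DMSO vehicle control viability so 100% = vehicle and 0% = no viable signal.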

COc1cc(C2c3cc4c(cc3C(OC3OC5COC(C)OC5C(O)C3O)C3COC(=O)C23)OCO4)cc(OC)c1O (stereo not drawn) + Cc1cccc(N(C)C(=O)C2C(O)CCN2c2nc(C)cc(C(F)(F)F)c2C#N)c1
IC50 [1]: 6.73 µM | IC50 [2]: > 10 µM | IC50 [3]: 7.65 µM | IC50 [4]: > 10 µM | IC50 [5]: > 10 µM | IC50 [6]: > 10 µM | viability, T/C [7]: 111% | viability, T/C [8]: 108% | viability, T/C [9]: 76.4% | viability, T/C [10]: 72.2% | viability, T/C [11]: 52.5% | viability, T/C [12]: 47.6% | viability, T/C [13]: 101% | viability, T/C [14]: 84.6% | viability, T/C [15]: 72.9% | viability, T/C [16]: 72.8% | viability, T/C [17]: 55% | viability, T/C [18]: 50.8% | viability, T/C [19]: 102% | viability, T/C [20]: 96.3% | viability, T/C [21]: 83.4% | viability, T/C [22]: 74.2% | viability, T/C [23]: 58.9% | viability, T/C [24]: 47.2% | viability, T/C [25]: 112% | viability, T/C [26]: 86.1% | viability, T/C [27]: 81.9% | viability, T/C [28]: 74.9% | viability, T/C [29]: 63.7% | viability, T/C [30]: 47.3% | viability, T/C [31]: 98% | viability, T/C [32]: 101% | viability, T/C [33]: 71.8% | viability, T/C [34]: 74.4% | viability, T/C [35]: 62.2% | viability, T/C [36]: 51.2% | viability, T/C [37]: 101% | viability, T/C [38]: 77.7% | viability, T/C [39]: 70.6% | viability, T/C [40]: 75.9% | viability, T/C [41]: 71.1% | viability, T/C [42]: 55.9%

O=c1[nH]cc(F)c(=O)[nH]1 + COC1C(OC(N)=O)C(O)C(Oc2ccc3c(O)c(NC(=O)c4ccc(O)c(CC=C(C)C)c4)c(=O)oc3c2C)OC1(C)C
IC50 [1]: > 10 µM | IC50 [2]: > 10 µM | IC50 [3]: > 10 µM | IC50 [4]: > 10 µM | IC50 [5]: > 10 µM | IC50 [6]: > 10 µM | viability, T/C [7]: 101% | viability, T/C [8]: 92.8% | viability, T/C [9]: 108% | viability, T/C [10]: 108% | viability, T/C [11]: 91.3% | viability, T/C [12]: 75.4% | viability, T/C [13]: 109% | viability, T/C [14]: 113% | viability, T/C [15]: 88.5% | viability, T/C [16]: 97.2% | viability, T/C [17]: 93.6% | viability, T/C [18]: 68.7% | viability, T/C [19]: 92.6% | viability, T/C [20]: 99.6% | viability, T/C [21]: 99.8% | viability, T/C [22]: 95.4% | viability, T/C [23]: 86% | viability, T/C [24]: 65.9% | viability, T/C [25]: 104% | viability, T/C [26]: 101% | viability, T/C [27]: 91% | viability, T/C [28]: 105% | viability, T/C [29]: 98.5% | viability, T/C [30]: 76.8% | viability, T/C [31]: 102% | viability, T/C [32]: 93.2% | viability, T/C [33]: 91.2% | viability, T/C [34]: 88.4% | viability, T/C [35]: 92.5% | viability, T/C [36]: 72.8% | viability, T/C [37]: 106% | viability, T/C [38]: 108% | viability, T/C [39]: 101% | viability, T/C [40]: 95.9% | viability, T/C [41]: 88.2% | viability, T/C [42]: 73%

C#Cc1c(F)ccc2cc(O)cc(-c3ncc4c(N5CC6CCC(C5)N6)nc(OCC56CCCN5CC(F)C6)nc4c3F)c12 (stereo not drawn)
viability, T/C (compound 0.0316 µM): 24.6% and 29.7% and 27.3% | viability, T/C (compound 0.1 µM): 19.7% and 18.3% and 19.8% | viability, T/C (compound 0.316 µM): 18.1% and 15.8% and 16.3% | viability, T/C (compound 1 µM): 15% and 13.9% and 15.6% | viability, T/C (compound 3.16 µM): 14.4% and 11.4% and 13.7% | viability, T/C (compound 10 µM): 12.7% and 13.8% and 11% | IC50 (curve of compound): < 0.0316 µM

CC(=O)O[C@H]1C(=O)[C@@]2(C)[C@H]([C@H](OC(=O)c3ccccc3)[C@]3(O)C[C@H](OC(=O)[C@H](O)[C@@H](NC(=O)c4ccccc4)c4ccccc4)C(C)=C1C3(C)C)[C@]1(OC(C)=O)CO[C@@H]1C[C@@H]2O
viability, T/C (compound 0.00949 µM): 71.7% and 80.5% and 82.2% | viability, T/C (compound 0.03 µM): 56% and 69.6% and 61.2% | viability, T/C (compound 0.0949 µM): 54.2% and 56.2% and 58.5% | viability, T/C (compound 0.3 µM): 62% and 62.2% and 59.9% | viability, T/C (compound 0.949 µM): 66.9% and 69% and 60% | viability, T/C (compound 3 µM): 70.2% and 72.3% and 64.6% | IC50 (curve of compound): > 3 µM
